Results on 23 compounds are retold here after the RepoRT retention time repository (doi:10.1007/s00216-021-03828-0).

Holding throughout (conditions): stereoisomer not certain
Data set [1] is described as follows: RP, Merck Supelco Ascentis Express C18, 100 × 2.1 mm, 2 µm, 39 °C, 0.3 mL/min, estimated dead time 0.73 min; A: water + 0.1% formic acid, pH 3; B: acetonitrile + 0.1% formic acid, pH 3; gradient (min/%B) 0/5 2/5 17/99.9 20/99.9.
Data set [2] can be described thus: RP, Merck Supelco Ascentis Express C18, 100 × 2.1 mm, 2 µm, 40 °C, 0.2 mL/min, estimated dead time 1.1 min; A: water + 0.1% formic acid, pH 3; B: acetonitrile + 0.1% formic acid, pH 3; gradient (min/%B) 0/5 2/5 17/99.9 20/99.9.
Data set [3] is described as follows: RP, Merck Supelco Ascentis Express C18, 100 × 2.1 mm, 2 µm, 40 °C, 0.4 mL/min, estimated dead time 0.55 min; A: water + 0.1% formic acid, pH 3; B: acetonitrile + 0.1% formic acid, pH 3; gradient (min/%B) 0/5 2/5 17/99.9 20/99.9.
A short description of data set [4]: RP, Merck Supelco Ascentis Express C18, 100 × 2.1 mm, 2 µm, 40 °C, 0.35 mL/min, estimated dead time 0.63 min; A: water + 0.1% formic acid, pH 3; B: acetonitrile + 0.1% formic acid, pH 3; gradient (min/%B) 0/5 2/5 17/99.9 20/99.9.
Data set [5] in a line: RP, Merck Supelco Ascentis Express C18, 100 × 2.1 mm, 2 µm, 40 °C, 0.4 mL/min, estimated dead time 0.55 min; A: water + 0.1% formic acid, pH 3; B: acetonitrile + 0.1% formic acid, pH 3; gradient (min/%B) 0/5 2/5 17/99.9 20/99.9. This is another data set of the same source.
A short description of data set [6]: RP, Merck Supelco Ascentis Express C18, 100 × 2.1 mm, 2 µm, 40 °C, 0.2 mL/min, estimated dead time 1.1 min; A: water + 0.1% formic acid, pH 3; B: acetonitrile + 0.1% formic acid, pH 3; gradient (min/%B) 0/5 2/5 17/99.9 20/99.9. The source holds these as a separate data set.
A short description of data set [7]: RP, Merck Supelco Ascentis Express C18, 100 × 2.1 mm, 2 µm, 40 °C, 0.25 mL/min, estimated dead time 0.88 min; A: water + 0.1% formic acid, pH 3; B: acetonitrile + 0.1% formic acid, pH 3; gradient (min/%B) 0/5 2/5 17/99.9 20/99.9.

For the compound `O=C(O)CCc1ccccc1O` [3-(2-HYDROXYPHENYL)PROPANOATE], the LC retention time is 5.72 min in data set [1]; 6.72 min in data set [2]; 5.08 min in data set [3]; 5.36 min in data set [4]; 5.13 min in data set [5]; 12.1 min in data set [6]. Also, in data set [7], the LC retention time is 6.14 min.

`CC(O)(CC(=O)O)CC(=O)O` [3-HYDROXYMETHYLGLUTARATE]: the LC retention time in data set [1] was 1.06 min; in data set [2], 1.59 min; in data set [3] it was 0.76 min; in data set [4] it was 0.893 min; in data set [5], 0.773 min; in data set [6], 1.6 min. Further, the LC retention time in data set [7] was 1.26 min.

In the case of `O=C(O)Cc1cccc(O)c1` [3-HYDROXYPHENYLACETATE], the LC retention time in data set [1] was 5.94 min; in data set [2], 7.01 min; in data set [3] it was 5.14 min; in data set [4], 5.5 min; in data set [5], 5.17 min; in data set [6], 7 min. Further, the LC retention time in data set [7] is 6.34 min.

Consider `N[C@@H](Cc1ccc(O)c([N+](=O)[O-])c1)C(=O)O` [3-NITRO-L-TYROSINE], for which the LC retention time was 1.78 min in data set [1]; 2.7 min in data set [2]; 1.35 min in data set [3]; 1.56 min in data set [4]; 1.35 min in data set [5]; 2.72 min in data set [6]. Moreover, the LC retention time in data set [7] is 2.14 min.

Regarding `CC(=O)NCCCC(=O)O` [4-ACETAMIDOBUTANOATE], the LC retention time in data set [1] was 1.07 min; in data set [2] it was 1.63 min; in data set [3] it was 0.783 min; in data set [4], 0.923 min; in data set [5] it was 0.8 min; in data set [6], 1.63 min. In addition, the LC retention time in data set [7] is 1.29 min.

For `O=C(O)C=Cc1ccc(O)cc1` [4-COUMARATE], the LC retention time was 5.3 min in data set [1]; 6.26 min in data set [2]; 4.64 min in data set [3]; 4.94 min in data set [4]; 4.68 min in data set [5]; 6.25 min in data set [6]. For the same compound, the LC retention time in data set [7] was 5.68 min.

In the case of `O=Cc1ccc(O)cc1` [4-HYDROXYBENZALDEHYDE], the LC retention time in data set [1] is 4.34 min; in data set [2], 5.47 min; in data set [3], 3.59 min; in data set [4], 3.94 min; in data set [5] it was 3.64 min; in data set [6], 5.46 min. Besides, the LC retention time in data set [7] was 4.82 min.

On to `O=C(O)c1ccc(O)cc1` [4-HYDROXYBENZOATE], for which the LC retention time was 3.42 min in data set [1]; 4.53 min in data set [2]; 2.54 min in data set [3]; 2.94 min in data set [4]; 2.59 min in data set [5]; 4.53 min in data set [6]. Also, the LC retention time in data set [7] is 3.91 min.

For `Cc1ncc(CO)c(C(=O)O)c1O` [4-PYRIDOXATE], the LC retention time was 1.02 min in data set [1]; 1.57 min in data set [2]; 0.757 min in data set [3]; 0.877 min in data set [4]; 0.767 min in data set [5]; 1.57 min in data set [6]. Moreover, the LC retention time in data set [7] is 1.23 min.

With `O=C(O)c1ccnc2ccccc12` [4-QUINOLINECARBOXYLATE], the LC retention time in data set [1] was 1.04 min; in data set [2], 1.57 min; in data set [3], 0.763 min; in data set [4] it was 0.88 min; in data set [5], 0.773 min; in data set [6], 1.6 min. In data set [7], the LC retention time is 1.26 min.

Turning to `CC1OC(n2cnc3c(N)ncnc32)C(O)C1O` (stereo unspecified) [5'-DEOXYADENOSINE], the LC retention time in data set [1] was 1.24 min; in data set [2], 1.89 min; in data set [3], 0.937 min; in data set [4], 1.09 min; in data set [5], 0.95 min; in data set [6] it was 1.92 min. Further, in data set [7], the LC retention time is 1.49 min.

Consider `Cc1cc2nc[nH]c2cc1C` [5,6 DIMETHYLBENZIMIDAZOLE], for which the LC retention time in data set [1] was 4.28 min; in data set [2], 5.16 min; in data set [3], 3.76 min; in data set [4], 4 min; in data set [5], 3.79 min; in data set [6], 5.17 min. Moreover, the LC retention time in data set [7] was 4.67 min.

Take `O=C(O)Cc1c[nH]c2ccc(O)cc12` [5-HYDROXYINDOLEACETATE]: the LC retention time was 3.83 min in data set [1]; 4.78 min in data set [2]; 3.17 min in data set [3]; 3.47 min in data set [4]; 3.19 min in data set [5]; 4.79 min in data set [6]. Also, the LC retention time in data set [7] is 4.23 min.

Consider `NC(Cc1c[nH]c2ccc(O)cc12)C(=O)O` (stereo unspecified) [5-HYDROXYTRYPTOPHAN], for which the LC retention time is 1.1 min in data set [1]; 1.75 min in data set [2]; 0.81 min in data set [3]; 0.993 min in data set [4]; 0.853 min in data set [5]; 1.71 min in data set [6]. Moreover, the LC retention time in data set [7] is 1.35 min.

In the case of `O=C(O)CCCCCC(=O)O` [6-CARBOXYHEXANOATE], the LC retention time was 4.22 min in data set [1]; 5.14 min in data set [2]; 3.63 min in data set [3]; 3.89 min in data set [4]; 3.66 min in data set [5]; 5.13 min in data set [6]. The LC retention time in data set [7] is 4.61 min.

For `O=C(O)c1ccc(=O)[nH]c1` [6-HYDROXYNICOTINATE], the LC retention time is 1.06 min in data set [1]; 1.59 min in data set [2]; 0.773 min in data set [3]; 0.887 min in data set [4]; 0.787 min in data set [5]; 1.59 min in data set [6]. Moreover, in data set [7], the LC retention time was 1.26 min.

Turning to `O=C(O)CCCCCCCCCO` [10-HYDROXYDECANOATE], the LC retention time was 7.1 min in data set [1]; 8.03 min in data set [2]; 6.55 min in data set [3]; 6.8 min in data set [4]; 6.58 min in data set [5]; 8.02 min in data set [6]. For the same compound, the LC retention time in data set [7] was 7.49 min.

Take `Nc1ccccc1S(=O)(=O)O` [ANILINE-2-SULFONATE]: the LC retention time in data set [1] was 1.18 min; in data set [2], 1.74 min; in data set [3], 0.823 min; in data set [4], 0.95 min; in data set [5] it was 0.847 min; in data set [6], 1.76 min. Also, in data set [7], the LC retention time was 1.38 min.

On to `O=C(O)CCCCCCCC(=O)O` [AZELATE], for which the LC retention time in data set [1] was 6.09 min; in data set [2] it was 6.98 min; in data set [3], 5.49 min; in data set [4] it was 5.73 min; in data set [5], 5.57 min; in data set [6] it was 6.89 min. Further, in data set [7], the LC retention time was 6.39 min.

For `O=C(O)c1ccccc1` [BENZOATE], the LC retention time is 4.34 min in data set [1]; 7.03 min in data set [2]; 5.23 min in data set [3]; 5.55 min in data set [4]; 5.28 min in data set [5]; 7.03 min in data set [6]. Also, in data set [7], the LC retention time is 6.4 min.

`O=C(O)CCCCC1SCC2NC(=O)NC21` (stereo unspecified) [BIOTIN]: the LC retention time was 4.62 min in data set [1]; 5.44 min in data set [2]; 4.11 min in data set [3]; 4.34 min in data set [4]; 4.14 min in data set [5]; 5.44 min in data set [6]. Also, the LC retention time in data set [7] was 4.96 min.

For the compound `CC(CCC(=O)O)C1CCC2C3C(O)CC4CC(O)CCC4(C)C3CC(O)C12C` (stereo unspecified) [CHOLATE], the LC retention time is 9.4 min in data set [1]; 10.3 min in data set [2]; 8.9 min in data set [3]; 9.14 min in data set [4]; 8.94 min in data set [5]; 10.3 min in data set [6]. For the same compound, the LC retention time in data set [7] was 9.77 min.

On to `CC12CCC(=O)C=C1CCC1C2CCC2(C)C1CCC2(O)C(=O)CO` (stereo unspecified) [CORTEXOLONE], for which the LC retention time in data set [1] is 8.25 min; in data set [2], 9.2 min; in data set [3], 7.69 min; in data set [4], 7.95 min; in data set [5], 7.73 min; in data set [6], 9.16 min. Further, the LC retention time in data set [7] is 8.66 min.
